Assay results from ChEMBL document CHEMBL1159171, “Symmetry-based HIV protease inhibitors containing a hydroxy bis-urea isostere” (Bioorg Med Chem Lett, 1994).
Values belong to the compound of their own block, whether it stands above or below them.

Target: Human immunodeficiency virus type 1 protease (Human immunodeficiency virus 1) (UniProt Q72874)
Experiment: In vitro inhibitory activity against HIV-1 protease at a concentration of 10 uM

inhibition: 36%
SMILES: CON[C@H](C(=O)NC(=O)N(Cc1ccccc1)CC(O)CN(Cc1ccccc1)C(=O)NC(=O)[C@@H](NOC)C(C)C)C(C)C

inhibition: 67%
SMILES: CC(C)(C)NC(=O)N(Cc1cccc(O)c1)CC(O)CN(Cc1cccc(O)c1)C(=O)NC(C)(C)C

inhibition: 17.5%
SMILES: CC(C)(C)N(Cc1ccccc1)C(=O)NCC(O)CNC(=O)N(Cc1ccccc1)C(C)(C)C

inhibition: 38%
SMILES: CCCNC(=O)N(Cc1ccccc1)CC(O)CN(Cc1ccccc1)C(=O)NCCC

inhibition: 19%
SMILES: O=C(NCc1ccccc1)N(Cc1ccccc1)CC(O)CN(Cc1ccccc1)C(=O)NCc1ccccc1

inhibition: 16%
SMILES: O=C(Nc1ccccc1)N(Cc1ccccc1)CC(O)CN(Cc1ccccc1)C(=O)Nc1ccccc1

inhibition: 67%
SMILES: CC(C)(C)NC(=O)N(Cc1cccc(O)c1O)CC(O)CN(Cc1cccc(O)c1O)C(=O)NC(C)(C)C

inhibition: 8%
SMILES: CC(C)(C)NC(=O)NCC(O)CNC(=O)NC(C)(C)C

The remaining lines, values behind:

SMILES: CC(C)(C)NC(=O)N(Cc1ccccc1)C[C@H](O)[C@@H](O)CN(Cc1ccccc1)C(=O)NC(C)(C)C
inhibition: 78%

SMILES: CC(C)(C)NC(=O)N(Cc1ccccc1O)CC(O)CN(Cc1ccccc1O)C(=O)NC(C)(C)C
inhibition: 11%

SMILES: CC(C)CN(CC(O)CN(CC(C)C)C(=O)NC(C)(C)C)C(=O)NC(C)(C)C
inhibition: 25%

SMILES: CC(C)(C)OC(=O)NC(=O)N(Cc1ccccc1)CC(O)CN(Cc1ccccc1)C(=O)NC(=O)OC(C)(C)C
inhibition: 28%

SMILES: CON[C@@H](C(=O)NC(=O)N(Cc1ccccc1)CC(O)CN(Cc1ccccc1)C(=O)NC(=O)[C@H](NOC)C(C)C)C(C)C (single isomer, unassigned)
inhibition: 16%

SMILES: CC(C)(C)NC(=O)N(Cc1ccccc1)CC(O)CN(Cc1ccccc1)C(=O)NC(C)(C)C
inhibition: 50%

SMILES: CC(C)[C@H](NC(=O)OCc1ccccc1)C(=O)N[C@@H](Cc1ccccc1)C(O)[C@H](Cc1ccccc1)NC(=O)[C@@H](NC(=O)OCc1ccccc1)C(C)C
inhibition: 3%
